Laboratory results from article PMC7069095, “A cell-permeable peptide-based PROTAC against the oncoprotein CREPT proficiently inhibits pancreatic cancer” (Theranostics, 2020).

Columns and labels:
Panc-1 cells = experiment: Confocal fluorescence imaging of FITC labeled peptides in cells; assay type: cell-based; conditions: confocal microscope, Panc-1 cells
Protocol: To examine whether PRTC could permeate into pancreatic cancer cells, we synthesized fluorescein isothiocyanate (FITC) labeled PRTC, PRTC-m, PRTC-v, PRTC-r (PRTC without RRRRK) as well as TAT (a widely used cell penetrating peptide, as a positive control).
Figure 3 Identification of the permeability of PRTC in Panc-1 cells. (A) Entry of FITC- labeled peptides into Panc-1 cells tested by flow cytometry. FITC-TAT is the positive control. Measurements were performed in triplicate. (B) Quantification of cellular uptake of Panc-1 cells treated with different concentrations of FITC-PRTC. (C) Confocal microscope images of Panc-1 cells treated with 10 μM FITC labeled peptides. Scale bars, 10 μm. (D) Confocal microscope images of Panc-1 cells treated with different dosages of FITC-PRTC. Scale bars, 10 μm.

[1] = target: T1, endogenous CREPT protein in Panc-1 cells (Homo sapiens, UniProt Q9NQG5); experiment: Immunofluorescence staining of CREPT in cells treated with FITC-PRTC; assay type: cell-based; conditions: immunofluorescence with anti-CREPT antibody
T1 construct: endogenous protein level of CREPT in Panc-1, AsPc-1 and MIA-PaCa-2 cells; endogenous in cells; host or cells: Panc-1, AsPc-1, MIA PaCa-2
T1 sequence (Q9NQG5 1-326): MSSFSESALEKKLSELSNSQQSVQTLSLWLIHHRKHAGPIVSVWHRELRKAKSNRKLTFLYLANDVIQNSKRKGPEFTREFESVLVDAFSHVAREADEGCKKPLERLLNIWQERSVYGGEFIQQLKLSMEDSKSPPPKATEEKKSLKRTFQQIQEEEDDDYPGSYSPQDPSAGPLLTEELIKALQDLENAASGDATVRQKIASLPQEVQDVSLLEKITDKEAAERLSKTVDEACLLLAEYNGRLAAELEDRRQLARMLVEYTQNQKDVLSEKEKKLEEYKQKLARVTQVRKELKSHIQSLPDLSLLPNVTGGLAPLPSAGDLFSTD
Protocol: After adherence, cells were treated with 10 μM PRTC for 24 h. The cells were then gently washed three times with warm PBS, fixed with 4% paraform and incubated with 0.25% Triton X-100 in PBST. Next, the cells were blocked in 5% BSA for 1 h at room temperature and incubated with an antibody against CREPT at 4 °C overnight. Cells were washed 3 times with PBST (0.1% Tween-20) and incubated with TRITC-labeled goat anti-mouse IgG antibody (Jackson ImmunoReseach) at a dilution rate of 1:100 at room temperature for 1 h. Coverslips were imaged by a confocal laser scanning microscope (OLYMPUS).
(§1) To address whether PRTC could induce CREPT degradation, we examined the endogenous protein level of CREPT in Panc-1, AsPc-1 and MIA-PaCa-2 cells in the presence of different dosages of PRTC. […] Consistently, treatment with PRTC led to decreases in CREPT protein at different times (Figure 5B, S3A). […] To further visualize the degradation process, we stained the endogenous CREPT protein with an antibody against CREPT in the cells treated with FITC-labeled PRTC.

[2] = Circular dichroism (CD) spectroscopy; assay type: physicochemical; conditions: 0.1 mg/mL in deionized water, room temperature
Protocol: All peptides were dissolved in the deionized water at a final concentration of 0.1 mg/mL. The CD spectra were measured by using a 1 nm bandwidth with a 1 nm step resolution from 190 to 260 nm at room temperature (Jasco spectropolarimeter, Japan). Final spectra were obtained from the average of three parallel scans after subtracting a spectrum of deionized water recorded under the same conditions. Each sample was scanned thrice and the averaged spectrum was smoothed. The helicity were calculated by CDNN 2.1 [59], [60].

MIA PaCa-2 cells = experiment: Cell proliferation assay (CCK-8); assay type: cell-based; conditions: 10 μM
Protocol: (§2) Cells were seeded into 96-well plates (1000 cells per well) and cultured for the indicated times. Cell viability was evaluated using a CCK-8 kit (Solarbio, Beijing, China). The value of OD450 was calculated by spectrophotometer and presented as the mean ± standard deviation (SD) from three individual experiments. […]
PaCa-2cells treatedwith deionizedH 2O(Ctrl),10μMPRTC, PRTC-mandPRTC-v. […]
(§3) (1 picture or pasted object on this page, not shown here)

[3] = target: T2, ubiquitinated CREPT in Panc-1 cells (Homo sapiens, UniProt Q9NQG5); experiment: Endogenous IP of CREPT with ubiquitin (Co-IP); assay type: cell-based; conditions: 10 μM peptide for 24 h, IP: CREPT, IB: anti-ubiquitin
T2 construct: endogenous protein level of CREPT in Panc-1, AsPc-1 and MIA-PaCa-2 cells; endogenous in cells; host or cells: Panc-1, AsPc-1, MIA PaCa-2
T2 sequence (Q9NQG5 1-326): T1 sequence (Q9NQG5 1-326)
Protocol: (§4) For exogenous immunoprecipitation assays, HEK293T cells were plated in 60 mm dishes and then transfected with the indicated plasmids. After 24 h, cells were harvested using RIPA buffer (50 mM Tris-HCl pH 8.0, 2 mM EDTA pH 8.0, 150 mM NaCl, 1% NP-40, 0.5% sodium deoxycholate, 0.1% SDS) with mixed protease inhibitors. Cell lysates were incubated with 2 μg of the indicated antibodies and 30 μL of protein A/G-Sepharose beads at 4 °C overnight. Beads were eluted five times with lysis buffer (50 mM Tris-HCl pH 7.6, 1 mM EDTA pH 8.0, 165 mM NaCl, 0.5% NP-40), and thereafter, a western blot assay was performed to analyze the association by using the indicated antibodies. Western blot was performed as previously reported. Anti-β-actin and anti-Flag antibodies were purchased from Sigma. Anti-Myc antibody was purchased from Santa Cruz Biotechnology. Antibody against CREPT was produced in the laboratory.
In addition, a Co-IP experiment was performed in Panc-1 cells treated with 10 μM PRTC, PRTC-m or PRTC-v for 24 h. […] In the absence of MG132, the level of ubiquitinated CREPT was further increased by PRTC (Figure 6C, compare lane 1 and lane 2).
Figure 6 The degradation of CREPT by PRTC is dependent on its VHL ligand. (A) Immunoblot of CREPT following 24 h incubation with different dosages of PRTC or PRTC-v in Panc-1 cells. (B) Immunoblot of CREPT exposed to 10 μM PRTC or PRTC-v for different time points in Panc-1 cells. (C) Endogenous IP experiment of CREPT with ubiquitin treated with 10 μM PTRC, PTRC-m or PTRC-v in Panc-1 cells. IP: CREPT, IB: Anti-ubiquitin.

[4] = target: T1, endogenous CREPT protein in Panc-1 cells; experiment: Western blot of endogenous CREPT (degradation); assay type: cell-based; conditions: different dosages (24 h) or time points (10 μM)
Protocol: as §4, §1
Figure 5 PRTC induces the ubiquitination and proteasome- dependent degradation of the endogenous CREPT protein. (A) Immunoblot of CREPT following 24 h incubation with different dosages of PRTC or PRTC-m in Panc-1 cells. (B) Immunoblot of CREPT exposed to 10 μM PRTC or PRTC-m for different times in Panc-1 cells. (C) Western blot analysis of CREPT following 24 h incubation with 10 μM PTRC in Panc-1 cells. MG132 is an inhibitor of proteasome activity. (D) Immunofluorescence visualization of Panc-1 cells after treatment with PRTC for 24 h. Cells were stained with anti-CREPT antibody. Scale bars, 20 μm.

AsPc-1 cells = experiment: Cell proliferation assay (CCK-8); assay type: cell-based; conditions: 10 μM
Protocol: as §2
CellproliferationassayofAsPc-1cellstreatedwith deionizedwater(Ctrl), 10μMPRTC,10μM […]
as §3

Substance | localization of FITC labeled peptides in the cells (Panc-1 cells; 10 μM FITC labeled peptides) | subcellular localization (Panc-1 cells; increasing concentration and incubation time, repeated in AsPc-1 and MIA PaCa-2 cells) | endogenous CREPT protein at 24 h [1] | secondary structure by CD spectrum [2] | Helicity ([2]; 190 to 260 nm, average of three scans, calculated by CDNN 2.1) | cell proliferation (MIA PaCa-2 cells) | ubiquitinated CREPT proteins [3] | degradation of endogenous CREPT protein [4] | cell proliferation (AsPc-1 cells)
FITC-AHX-IYP (OH) AL-AHX-KDVLSEKEKKLEEYKQKLARV-RRRRK [FITC-PRTC, fluorescein isothiocyanate (FITC) labeled PRTC] | strong localization | localized into the nucleus | almost completely depleted | – | – | – | – | – | –
KDVLSEKEKKLEEYKQKLARV-RRRRK [PRTC-v, PRTC without the VHL ligand] | – | – | – | α-helix structure | 42.2% | failed | unable to mediate the accumulation | failed to degrade | failed
